For this assay, the target named is T1, XenA-his (Pseudomonas putida, UniProt Q9R9V9).
T1 construct: about 39 kDa, described as monomeric flavoprotein
T1 sequence (Q9R9V9 1-363): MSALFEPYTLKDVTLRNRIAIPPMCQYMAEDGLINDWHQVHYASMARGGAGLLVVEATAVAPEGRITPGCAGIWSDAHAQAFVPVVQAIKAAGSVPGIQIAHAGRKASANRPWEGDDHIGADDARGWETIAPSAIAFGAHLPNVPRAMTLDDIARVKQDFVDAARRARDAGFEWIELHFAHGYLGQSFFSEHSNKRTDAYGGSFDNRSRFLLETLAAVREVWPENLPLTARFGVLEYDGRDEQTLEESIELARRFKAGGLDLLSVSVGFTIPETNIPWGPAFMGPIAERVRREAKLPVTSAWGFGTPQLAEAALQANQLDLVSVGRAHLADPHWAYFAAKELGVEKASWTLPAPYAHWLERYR
Nature of the assay: reduction of nitro groups tested with purified enzyme. Type of assay: biochemical.

This note sets out measurements from paper PMC7568253, “Evaluation of two xenobiotic reductases from Pseudomonas putida for their suitability for magnetic nanoparticle‐directed enzyme prodrug therapy as a novel approach to cancer treatment” (MicrobiologyOpen, 2020).

In the case of `O=[N+]([O-])OCC(CO[N+](=O)[O-])O[N+](=O)[O-]` [nitro-glycerin], the “reduction of nitro groups tested with purified enzyme” value is “it was able to reduce the NO2 groups present in the substrate”.
